The values that follow come from article PMC6222450, “Computer-Aided Studies for Novel Arylhydantoin 1,3,5-Triazine Derivatives as 5-HT6 Serotonin Receptor Ligands with Antidepressive-Like, Anxiolytic and Antiobesity Action In Vivo” (Molecules : A Journal of Synthetic Chemistry and Natural …, 2018).

For one data set, the target named is T1, dopaminergic D2LR (Homo sapiens, UniProt P14416).
T1 construct: expressed in transfected cells; host or cells: HEK-293
Put plainly: Radioligand binding assay, D2LR, [3H]-Raclopride. Conditions: human D2L receptor stably expressed in HEK-293 cells; read-out: Ki D2 [3H]-Raclopride.

For a further data set, the target named is T2, 5-HT7bR (Homo sapiens, UniProt P34969).
T2 construct: expressed in transfected cells; host or cells: HEK-293
Put plainly: Radioligand binding assay, 5-HT7bR, [3H]-5-CT. The conditions noted are these: human 5-HT7b receptor stably expressed in HEK-293 cells; read-out: Ki 5-HT7 [3H]-5-CT.

A further data set deals with T3, 5-HT1A (Homo sapiens, UniProt P08908).
T3 construct: expressed in transfected cells; host or cells: HEK-293
T3 sequence (P08908 1-422): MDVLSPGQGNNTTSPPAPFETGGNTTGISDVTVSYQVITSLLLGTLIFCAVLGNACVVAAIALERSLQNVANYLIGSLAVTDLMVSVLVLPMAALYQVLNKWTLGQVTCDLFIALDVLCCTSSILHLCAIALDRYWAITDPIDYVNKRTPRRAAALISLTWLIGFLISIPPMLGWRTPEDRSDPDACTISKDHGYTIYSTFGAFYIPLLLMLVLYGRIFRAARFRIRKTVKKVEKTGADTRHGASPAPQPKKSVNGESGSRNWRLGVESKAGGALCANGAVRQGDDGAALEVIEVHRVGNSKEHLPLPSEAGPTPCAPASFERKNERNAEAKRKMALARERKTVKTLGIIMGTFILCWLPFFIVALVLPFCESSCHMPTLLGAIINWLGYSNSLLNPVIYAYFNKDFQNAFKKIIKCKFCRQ
Put plainly: Radioligand binding assay, 5-HT1A, [3H]-8-OH-DPAT. The conditions noted are these: human receptor stably expressed in HEK-293 cells.

The nature of the next data set: Lipophilicity by RP-TLC. Conditions: RP-18 TLC, water/methanol, extrapolated to 100% water. Type of data set: physicochemical. The procedure:
For comparison, the active arylmethyl-triazine compounds previously found (1–3) were also examined. Stationary phase RP-18 and mixtures of water/methanol […] as a mobile phase were employed. RM values were calculated from the RF data obtained. […] The regression coefficients (r^2) determined for all compounds were higher than 0.95. On the basis of the linear relationship between RM values and the volume fraction of methanol, values of RM0 in the systems analyzed corresponding to 100% of water were obtained by extrapolation. RM0 values received for the compounds tested ranged from 3.14 to 4.49 (Figure 6).
The mobile phases were prepared by mixing the respective amounts of water and organic modifier (methanol) in a range from 40 to 90% (v/v) in 5% increments. TLC was performed on Silica gel 60RP-18 F254 plates (7 × 10 cm) plates (Merck, Darmstadt, Germany). Methanol was used to prepare the solutions of the substances. Solutions (10 µL) of the analyzed compounds were applied to the plates as 5 mm bands, 10 mm apart and 10 mm from the lower edge and sides of the plates, by using Linomat V applicator (Camag, Basel, Switzerland). The vertical chamber (Sigma–Aldrich, St. Louis, MI, USA), 20 × 10 × 18 cm in size, was saturated with mobile phase for 20 min. Development was carried out over 9 cm from the starting line at a temperature of 20 °C. Next, the plates were dried at room temperature, and the spots were observed under ultraviolet light at 254 nm and/or 366 nm (UV lamp, Camag, Basel, Switzerland). In each case, sharp and symmetric spots without a tendency for tailing were obtained. Each experiment was run in triplicate and mean RF (retardation factor) values were calculated.
Starting from the RF values, the RM parameters were computed as described in the formula:RM = log(1/RF − 1)
The linear correlations between the RM values of the substances and the concentration of methanol in mobile phases were calculated for each compound with the Soczewiński-Wachtmeister equation [22]:RM = RM0 + aC where C is the concentration of the organic modifier (in %) in the mobile phase, a is the slope, and RM0 is the […].

The next data set concerns the target T4, human serotonin 5-HT6R (Homo sapiens, UniProt P50406).
T4 construct: expressed in transfected cells; host or cells: HEK-293
As to the kind of experiment: Radioligand binding assay, 5-HT6R, [3H]-LSD displacement. The conditions noted are these: for Ki: human receptor stably expressed in HEK-293 cells, mean of at least two independent experiments, read-out: Ki 5-HT6 [3H]-LSD. The procedure: Five selective radioligands were employed (Table 1).
Radioligand binding assays were used to determine the affinity of the synthesized compounds for human serotonin 5-HT6R, which were stably expressed in HEK-293 cells. […] Each compound was tested in triplicate at 7 to 8 different concentrations (10^−11 to 10^−4 M). The inhibition constants (Ki) were calculated using the Cheng–Prusoff equation [40], and the results are expressed as the mean of at least two independent experiments.

Data set [1] is described as follows: Body weight of non-obese rats fed only standard diet. Type of data set: in vivo, rat. Conditions: rats consuming standard feed, 5 mg/kg b.w. i.p. On the procedure: Male Wistar rats (170–190 g) were housed in a pair in plastic cages in constant temperature facilities exposed to a light-dark cycle. Control group (standard diet + vehicle) received vehicle (1% Tween 80, intraperitoneally), while the test group (standard diet + 6 or standard diet + 26) was injected (intraperitoneally) with 6 or 26 at the dose of 5 mg/kg b.w. dissolved in 1% Tween 80 (1 mL/kg). Body weights were measured daily immediately prior to administration of drugs.

Data set [2] in a line: Body weight of non-obese rats fed palatable diet (model of excessive eating). It counts as in vivo, rat. The source says: In order to determine the anorectic activity of 6 or 26, the model of excessive eating was used. Male Wistar rats (170–190 g) were housed in a pair in plastic cages in constant temperature facilities exposed to a light-dark cycle. Water and food were available ad libitum. Two groups of 6 rats were fed with diets consisting of milk chocolate with nuts, cheese, salted peanuts, and 7% condensed milk and also had access to standard feed (Labofeed B, Morawski Manufacturer Feed, Kcynia, Poland) and water ad libitum for 3 weeks. Palatable control group (palatable diet + vehicle) received vehicle (1% Tween 80, intraperitoneally), while palatable test group (palatable diet + 6 or palatable + 26) was injected (intraperitoneally) with 6 or 26 at the dose of 5 mg/kg b.w. dissolved in 1% Tween 80 (1 mL/kg). Body weights were measured daily, immediately prior to administration of drugs.
The palatable diet contained: 100 g peanuts—614 kcal; 100 mL condensed milk—131 kcal; 100 g milk chocolate—529 kcal; 100g cheese (Greek type)—270 kcal. The standard diet contained 100 g feed—280 kcal.

The next data set deals with HEK-293 cells. As to the kind of experiment: Toxicity in vitro, MTS test. It counts as cell-based. The conditions noted are these: 72 h. On the procedure: The preliminary evaluation of the safety profile for the most promising 5-HT6R ligands 6 and 26 was performed in vitro with the HEK-293 eukaryotic cell line. The compounds examined were dissolved in culture growth media and incubated with cells for 72 h. Next, the MTS test was applied to determine the viability of the cells. […] The reference cytostatic drug doxorubicin (DX) at the very low concentration 1 μM was also cytotoxic.
The ATCC CRL 1573 HEK-293 cells were seeded in 96-well plates (NuncTM) at a concentration of 1 × 10^4 cells/well in 200 μL in Dulbecco’s Modified Eagle’s Medium (Gibco®) supplemented with 10% fetal bovine serum (Gibco®), and cultured at 37 °C in an atmosphere containing 5% of CO2 for 24 h to reach 60% confluence. The 10 mM stock solutions of 5-HT6R ligands 6 and 26 in DMSO were diluted into fresh growth medium and added into the microplates at the final concentrations 0.1 μM –100 μM. […] The cytostatic drug doxorubicin (Sigma-Aldrich) at the concentration 1 μM was used as a reference. After 72 h of incubation 20 μL of CellTiter 96® AQueous Non-Radioactive Cell Proliferation Assay (MTS) (Promega®) was added to each well and the cells were incubated under the same conditions for 2 h. The absorbance of the samples was measured using a microplate reader EnSpire (PerkinElmer, Waltham, MA, USA) at 490 nm. Statistical significance was analyzed by GraphPad Prism™ software v. 5.01 (GraphPad Software, La Jolla, CA, USA) using One-way ANOVA and Bonferroni’s Multiple Comparison Post Test.

In another data set the target is T5, 5-HT2A (Homo sapiens, UniProt P28223).
T5 construct: expressed in transfected cells; host or cells: HEK-293
As to the kind of experiment: Radioligand binding assay, 5-HT2A, [3H]-Ketanserin. Conditions: human receptor stably expressed in HEK-293 cells.

Where “and” joins values, the source holds several entries; their conditions need not be identical. Equal entries are not always repeated.

T2 sequence (P34969 1-432 limits assumed): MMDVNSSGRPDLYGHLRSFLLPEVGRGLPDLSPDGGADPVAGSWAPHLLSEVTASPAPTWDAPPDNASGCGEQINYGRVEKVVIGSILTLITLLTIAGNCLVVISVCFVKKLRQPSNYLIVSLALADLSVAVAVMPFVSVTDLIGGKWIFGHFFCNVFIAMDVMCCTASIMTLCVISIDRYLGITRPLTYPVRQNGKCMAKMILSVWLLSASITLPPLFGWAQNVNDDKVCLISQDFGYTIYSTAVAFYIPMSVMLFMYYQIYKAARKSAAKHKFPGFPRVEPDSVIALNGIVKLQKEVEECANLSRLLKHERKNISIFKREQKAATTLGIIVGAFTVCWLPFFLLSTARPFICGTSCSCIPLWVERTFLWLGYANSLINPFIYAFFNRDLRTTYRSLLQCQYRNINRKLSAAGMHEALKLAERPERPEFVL
T1 sequence (P14416 whole entry): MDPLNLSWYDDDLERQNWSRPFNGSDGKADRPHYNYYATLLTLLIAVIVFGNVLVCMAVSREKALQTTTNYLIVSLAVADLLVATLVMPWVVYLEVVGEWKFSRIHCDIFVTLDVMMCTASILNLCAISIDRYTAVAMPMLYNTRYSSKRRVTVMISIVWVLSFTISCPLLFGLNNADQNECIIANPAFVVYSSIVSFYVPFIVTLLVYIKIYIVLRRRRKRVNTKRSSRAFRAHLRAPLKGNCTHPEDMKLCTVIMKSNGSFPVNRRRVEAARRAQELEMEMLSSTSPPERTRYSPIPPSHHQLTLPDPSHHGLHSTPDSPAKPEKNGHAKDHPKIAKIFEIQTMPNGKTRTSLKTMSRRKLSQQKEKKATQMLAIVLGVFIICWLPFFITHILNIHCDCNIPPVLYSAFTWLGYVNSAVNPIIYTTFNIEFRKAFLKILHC
T4 sequence (P50406 whole entry): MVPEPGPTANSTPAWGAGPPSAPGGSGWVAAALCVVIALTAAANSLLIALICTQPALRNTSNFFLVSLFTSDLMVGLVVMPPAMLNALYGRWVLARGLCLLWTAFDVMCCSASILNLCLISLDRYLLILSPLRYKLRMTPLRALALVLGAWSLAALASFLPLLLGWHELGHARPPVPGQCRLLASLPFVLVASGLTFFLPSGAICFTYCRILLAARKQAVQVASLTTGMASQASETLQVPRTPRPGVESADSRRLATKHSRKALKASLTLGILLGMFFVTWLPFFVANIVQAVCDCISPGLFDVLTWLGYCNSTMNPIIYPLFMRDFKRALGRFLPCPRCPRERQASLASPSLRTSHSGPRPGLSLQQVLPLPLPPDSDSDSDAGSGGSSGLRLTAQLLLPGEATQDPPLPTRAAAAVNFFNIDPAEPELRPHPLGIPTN
T5 sequence (P28223 whole entry): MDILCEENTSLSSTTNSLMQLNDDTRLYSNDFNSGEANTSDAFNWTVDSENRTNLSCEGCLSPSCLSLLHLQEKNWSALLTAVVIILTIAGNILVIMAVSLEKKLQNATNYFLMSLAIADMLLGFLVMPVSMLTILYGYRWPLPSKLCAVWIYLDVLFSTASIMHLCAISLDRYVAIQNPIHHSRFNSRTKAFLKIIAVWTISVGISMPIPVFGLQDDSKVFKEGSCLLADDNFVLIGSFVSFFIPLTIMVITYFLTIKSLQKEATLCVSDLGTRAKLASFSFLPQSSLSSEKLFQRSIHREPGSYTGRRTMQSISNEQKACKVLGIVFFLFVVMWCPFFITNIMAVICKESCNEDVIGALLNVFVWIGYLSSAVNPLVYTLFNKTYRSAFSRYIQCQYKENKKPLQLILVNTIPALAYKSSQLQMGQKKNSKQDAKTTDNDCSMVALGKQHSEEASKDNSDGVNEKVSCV

Take `CN1CCN(c2nc(N)nc(CN3C(=O)N(Cc4ccc(Cl)cc4)C(=O)C3(C)C)n2)CC1` [Compound 5, 3-(4-Chlorobenzyl)-1-((4-amino-6-(4-methylpiperazin-1-yl)-1,3,5-triazin-2-yl)methyl)-5,5-dimethylimidazolidine-2,4-dione]: the Ki came out at 5.01 µM at dopaminergic D2LR, 1.62 µM at 5-HT7bR, 15.4 µM on 5-HT1A and 4.28 µM at human serotonin 5-HT6R. In addition, the RM0 in “Lipophilicity by RP-TLC” is reported as 3.22.

As for `CN1CCN(c2nc(N)nc(CN3C(=O)N(Cc4ccc(Cl)cc4)C(C)(C)C3=O)n2)CC1` [Compound 6, 1-(4-Chlorobenzyl)-3-((4-amino-6-(4-methylpiperazin-1-yl)-1,3,5-triazin-2-yl)methyl)-5,5-dimethylimidazolidine-2,4-dione], the Ki at dopaminergic D2LR is 4.1 µM; at 5-HT7bR, 3.71 µM; at 5-HT1A it was 23.3 µM; at human serotonin 5-HT6R it was < 0.2 µM and 0.127 µM. Besides, in data set [1], the “effect on body weight” value is reported as “No effects on body weight”. Also, the RM0 in “Lipophilicity by RP-TLC” is reported as 3.39. Further, the “day of experiment from which groups differed significantly” value in data set [2] (rats fed palatable feed, 5 mg/kg b.w. i.p. daily) was found to be 16 days. Also, the “weight gain vs control group” value in data set [2] (rats fed palatable feed, 5 mg/kg b.w. i.p., 21 days) is listed as “significantly less weight gain”. In addition, in data set [2] (treated rats with access to preferential feed, 5 mg/kg b.w. i.p.), the “body weight vs control animals fed standard feed” value was “differed significantly”. In the data set with HEK-293 cells (0.1 μM–100 μM), the “toxicity in HEK-293 cells” value is listed as “low”. Further, the “viability of HEK-293 cells” value in the data set on HEK-293 cells (100 μM, *** p < 0.001) is “statistically significant decrease of viability”.

Turning to `CN1CCN(c2nc(N)nc(CN3C(=O)NC(C)(c4ccc(Cl)cc4)C3=O)n2)CC1` (stereo not shown) [Compound 7, 3-((4-Amino-6-(4-methylpiperazin-1-yl)-1,3,5-triazin-2-yl)methyl)-5-(4-chlorophenyl)-5-methylimidazolidine-2,4-dione], the Ki is 31.2 µM on dopaminergic D2LR; 0.938 µM on 5-HT7bR; 28.1 µM at 5-HT1A; < 0.2 µM and 0.176 µM on human serotonin 5-HT6R. In addition, in the data set “Lipophilicity by RP-TLC”, the RM0 is 3.51.

In the case of `CN1CCN(c2nc(N)nc(CN3C(=O)NC(c4ccc(Cl)cc4)(c4ccc(Cl)cc4)C3=O)n2)CC1` [Compound 8, 3-((4-Amino-6-(4-methylpiperazin-1-yl)-1,3,5-triazin-2-yl)methyl)-5,5-bis(4-chlorophenyl)imidazolidine-2,4-dione], the Ki on dopaminergic D2LR was found to be 6.85 µM; on 5-HT7bR, 0.594 µM; at 5-HT1A, 3.05 µM; at human serotonin 5-HT6R, 1.06 µM. Further, the RM0 in the data set “Lipophilicity by RP-TLC” is listed as 4.46.

`CN1CCN(c2nc(N)nc(CN3C(=O)N(Cc4ccc5ccccc5c4)C(C)(C)C3=O)n2)CC1` [Compound 18]: the inhibition constant (Ki) at dopaminergic D2LR is 0.888 µM; at 5-HT7bR, 1.53 µM; at 5-HT1A it was 5.72 µM; at 5-HT2A, 1.91 µM; on human serotonin 5-HT6R, < 0.2 µM and 0.182 µM. Also, the RM0 in the data set “Lipophilicity by RP-TLC” is listed as 4.04.

As to `CN1CCN(c2nc(N)nc(CN3C(=O)NC(C)(c4ccc(Cl)c(Cl)c4Cl)C3=O)n2)CC1` (stereo not shown) [Compound 23, 3-((4-Amino-6-(4-methylpiperazin-1-yl)-1,3,5-triazin-2-yl)methyl)-5-(2,3,4-trichlorophenyl)-5-methylimidazolidine-2,4-dione], the Ki at dopaminergic D2LR is 4.74 µM; at 5-HT7bR, 8.9 µM; on 5-HT1A it was 6.03 µM; at 5-HT2A it was 3.43 µM; at human serotonin 5-HT6R, < 0.2 µM and 0.195 µM. In addition, the RM0 in “Lipophilicity by RP-TLC” is 4.49.

On to `CN1CCN(c2nc(N)nc(CN3C(=O)NC(C)(c4cccc5ccccc45)C3=O)n2)CC1` (stereo not shown) [Compound 25, 3-((4-Amino-6-(4-methylpiperazin-1-yl)-1,3,5-triazin-2-yl)methyl)-5-methyl-5-(naphthalen-1-yl)imidazolidine-2,4-dione], for which the inhibition constant (Ki) at dopaminergic D2LR was 7.81 µM; at 5-HT7bR, 3.37 µM; on 5-HT1A, 7.15 µM; on 5-HT2A, 8.08 µM; on human serotonin 5-HT6R, < 0.2 µM and 0.121 µM. Moreover, in “Lipophilicity by RP-TLC”, the RM0 is recorded as 4.16. At human serotonin 5-HT6R (5-HT6R vs competitive GPCRs tested), the selectivity in words result is “highly selective”.

Turning to `COc1cccc2c1C(=O)c1c(O)c3c(c(O)c1C2=O)C[C@@](O)(C(=O)CO)C[C@@H]3O[C@H]1C[C@H](N)[C@H](O)[C@H](C)O1` [doxorubicin, reference compound], the “viability of HEK-293 cells” value in the data set with HEK-293 cells (1 μM) was “cytotoxic”.

As a reminder, the Ki is a measure of affinity in units of concentration, obtained from inhibition or displacement.
